Where “and” joins values, the source holds several entries; their conditions need not be identical. Equal values may be shown once. Toxic doses and inconclusive results are not listed.

This is an account of results in PubChem BioAssay AID330 (DTP/NCI, 2004).

This assay deals with P388 leukemia ip, CD2F1 mice, survival T/C. The assay can be described thus: NCI In Vivo Anticancer Drug Screen. Data for tumor model P388 Leukemia (intraperitoneal) in CD2F1 (CDF1) mice. The settings on record: endpoint: median survival time, higher = longer survival. Summed up:
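Mice carrying the transplanted tumor received test compound or vehicle. Survival was recorded in each group, and the value is the treated-group measurement divided by that of the vehicle-treated control group.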

Setting [1] is: dose: 60.0 mg/kg/injection, schedule: Q01DX005 (ip), vehicle: saline with Tween-80.
The mark [2] stands for this setting: dose: 120.0 mg/kg/injection, schedule: Q01DX005 (ip), vehicle: saline with Tween-80.
Where [3] appears, read: dose: 240.0 mg/kg/injection, schedule: Q01DX005 (ip), vehicle: saline with Tween-80.
The mark [4] stands for this setting: dose: 50.0 mg/kg/injection, schedule: Q01DX005 (ip), vehicle: saline with Tween-80.
The mark [5] stands for this setting: dose: 100.0 mg/kg/injection, schedule: Q01DX005 (ip), vehicle: saline with Tween-80.
[6] abbreviates: dose: 12.5 mg/kg/injection, schedule: Q01DX005 (ip), vehicle: saline with Tween-80.
The mark [7] stands for this setting: dose: 25.0 mg/kg/injection, schedule: Q01DX005 (ip), vehicle: saline with Tween-80.
Where [8] appears, read: dose: 6.25 mg/kg/injection, schedule: Q01DX009 (ip), vehicle: Klucel (hydroxypropylcellulose) (HPC).
Setting [9] is: dose: 50.0 mg/kg/injection, schedule: Q01DX009 (ip), vehicle: saline with Tween-80.
Where [10] appears, read: dose: 100.0 mg/kg/injection, schedule: Q04DX003 (ip), vehicle: Klucel (hydroxypropylcellulose) (HPC).
[11] abbreviates: dose: 200.0 mg/kg/injection, schedule: Q04DX003 (ip), vehicle: Klucel (hydroxypropylcellulose) (HPC).
Where [12] appears, read: dose: 400.0 mg/kg/injection, schedule: Q04DX003 (ip), vehicle: Klucel (hydroxypropylcellulose) (HPC).

For the compound `COc1cc2c(CCNC(C)=O)csc2cc1Cl`, the T/C by setting is: under setting [1], 97 % of control; under setting [2], 99 % of control; under setting [3], 105 % of control.

As to `O=C1OC(c2ccccc2)(c2ccccc2)CC1CC(O)(c1ccccc1)c1ccccc1` (configuration not stated), the T/C is, setting by setting: under setting [4], 98 % of control; under setting [5], 90 % of control.

For `NS(=O)(=O)c1cc(S(=O)(=O)Cl)ccc1Cl`, the T/C under setting [6] is 100 % of control; the T/C under setting [7] is 100 % of control; the T/C under setting [4] is 99 % of control and 94 % of control.

With `CC1OC(OC2C(CO)OC(O[C@H]3CC[C@@]4(C)C(=CC[C@H]5[C@@H]6C[C@@H]7O[C@]8(CC[C@@H](C)CN8)[C@@H](C)[C@@H]7[C@@]6(C)CC[C@@H]54)C3)C(O)C2O)C(O)C(O)C1O` (some centres not stated), the T/C runs as follows: (dose: 12.5 mg/kg/injection, schedule: Q01DX005 (ip), vehicle: acid diluted with saline) 101 % of control; (dose: 25.0 mg/kg/injection, schedule: Q01DX005 (ip), vehicle: acid diluted with saline) 105 % of control; (dose: 50.0 mg/kg/injection, schedule: Q01DX005 (ip), vehicle: acid diluted with saline) 105 % of control and 87 % of control; (dose: 100.0 mg/kg/injection, schedule: Q01DX005 (ip), vehicle: acid diluted with saline) 105 % of control.

For `CC(=O)OCC1=C(c2ccccc2)S(=O)(=O)c2ccccc2C1=O`, the T/C was 108 % of control under setting [6] and 106 % of control under setting [7].

Consider `CCCCn1cnc(C(=O)OC)c1O` (tested in a mixture with another compound), for which the T/C is, setting by setting: (dose: 100.0 mg/kg/injection, schedule: Q04DX002 (ip), vehicle: water) 103 % of control; (dose: 200.0 mg/kg/injection, schedule: Q04DX002 (ip), vehicle: water) 101 % of control; (dose: 400.0 mg/kg/injection, schedule: Q04DX002 (ip), vehicle: water) 108 % of control.

Take `NC1C([O-])OC(CO)C(O)C1O.O=C1OC(C(O)CO)C([O-])=C1[OH2+].[Cu+2]` (configuration not stated): the T/C runs as follows: (dose: 6.25 mg/kg/injection, schedule: Q01DX005 (ip), vehicle: saline) 93 % of control; (dose: 12.5 mg/kg/injection, schedule: Q01DX005 (ip), vehicle: saline) 99 % of control.

With `O=C(N/N=C/c1ccccc1O)C(O)(c1ccccc1)c1ccccc1`, the T/C is 107 % of control (dose: 100.0 mg/kg/injection, schedule: Q04DX003 (ip), vehicle: saline with Tween-80); 101 % of control (dose: 200.0 mg/kg/injection, schedule: Q04DX003 (ip), vehicle: saline with Tween-80); 92 % of control (dose: 400.0 mg/kg/injection, schedule: Q04DX003 (ip), vehicle: saline with Tween-80).

Consider `C=CCc1ccccc1NC(C)C(=O)OCC` (configuration not stated), for which the T/C under setting [4] is 107 % of control; the T/C under setting [5] is 107 % of control; the T/C (dose: 200.0 mg/kg/injection, schedule: Q01DX005 (ip), vehicle: saline with Tween-80) is 107 % of control.

Regarding `CCN1/C(=C/C=C2\CCC(/C=C/c3sc4ccc(Cl)cc4[n+]3CC)=C2N(c2ccccc2)c2ccccc2)Sc2ccc(Cl)cc21`, the T/C reads like this: under setting [8], 156 % of control; (dose: 50.0 mg/kg/injection, schedule: Q01DX009 (ip), vehicle: Klucel (hydroxypropylcellulose) (HPC)) 107 % of control.

As to `NC(=O)C1=Cc2cc(Cl)ccc2OC1`, the T/C is 97 % of control (dose: 6.25 mg/kg/injection, schedule: Q01DX009 (ip), vehicle: saline with Tween-80); 102 % of control (dose: 12.5 mg/kg/injection, schedule: Q01DX009 (ip), vehicle: saline with Tween-80); 92 % of control (dose: 25.0 mg/kg/injection, schedule: Q01DX009 (ip), vehicle: saline with Tween-80); 106 % of control under setting [9].

Take `COc1ccc(CN2CCc3c(cccc3[N+](=O)[O-])C2)cc1`: the T/C was 98 % of control under setting [10], 103 % of control under setting [11] and 96 % of control under setting [12].

For the compound `COC1/C=C/OC2(C)Oc3c(C)c(O)c4c(O)c(c(/C=N/N5C(C)CN(Cc6ccc(O)cc6)CC5C)c(O)c4c3C2=O)NC(=O)C(C)=C/C=C/C(C)C(O)C(C)C(O)C(C)C(OC(C)=O)C1C` (configuration not stated), the T/C under setting [9] was 95 % of control; the T/C (dose: 100.0 mg/kg/injection, schedule: Q01DX009 (ip), vehicle: saline with Tween-80) is 99 % of control; the T/C (dose: 200.0 mg/kg/injection, schedule: Q01DX009 (ip), vehicle: saline with Tween-80) was 96 % of control.

Consider `Cc1ccc(S(=O)(=O)N(CCCc2c(C)nc(N)[nH]c2=O)Cc2ccc([N+](=O)[O-])cc2)cc1`, for which the T/C is, setting by setting: (dose: 60.0 mg/kg/injection, schedule: Q01DX005 (ip), vehicle: Klucel (hydroxypropylcellulose) (HPC)) 88 % of control; (dose: 120.0 mg/kg/injection, schedule: Q01DX005 (ip), vehicle: Klucel (hydroxypropylcellulose) (HPC)) 86 % of control; (dose: 240.0 mg/kg/injection, schedule: Q01DX005 (ip), vehicle: Klucel (hydroxypropylcellulose) (HPC)) 87 % of control.

As to `COC1OC2COC(c3ccccc3)OC2C(N=Cc2ccccc2)C1O` (configuration not stated), the T/C is, setting by setting: under setting [1], 104 % of control; under setting [2], 103 % of control; under setting [3], 100 % of control.

For the compound `CC1CCCCN1c1cc2nc[nH]c(=O)c2cc1[N+](=O)[O-]` (configuration not stated), the T/C reads like this: under setting [10], 108 % of control; under setting [11], 99 % of control; under setting [12], 100 % of control.

`CS(=O)(=O)N1CC=CCS1=O` (configuration not stated): the T/C reads like this: under setting [8], 103 % of control; (dose: 12.5 mg/kg/injection, schedule: Q01DX009 (ip), vehicle: Klucel (hydroxypropylcellulose) (HPC)) 108 % of control; (dose: 25.0 mg/kg/injection, schedule: Q01DX009 (ip), vehicle: Klucel (hydroxypropylcellulose) (HPC)) 108 % of control.

Regarding `CCCCCCCCCCCCOC(=O)c1ccc(Br)cc1`, the T/C by setting is: (dose: 100.0 mg/kg/injection, schedule: Q01DX009 (ip), vehicle: Klucel (hydroxypropylcellulose) (HPC)) 104 % of control; (dose: 200.0 mg/kg/injection, schedule: Q01DX009 (ip), vehicle: Klucel (hydroxypropylcellulose) (HPC)) 102 % of control.

`CCCCCCCCCCCCCC[N+](C)(CC(=O)[O-])Cc1ccccc1` (configuration not stated): the T/C was 108 % of control (dose: 15.0 mg/kg/injection, schedule: Q01DX005 (ip), vehicle: saline with Tween-80); 93 % of control (dose: 30.0 mg/kg/injection, schedule: Q01DX005 (ip), vehicle: saline with Tween-80); 101 % of control under setting [1].

As for `COc1ccc(C=C2C(=O)C=CC2=O)cc1`, the T/C (dose: 1.25 mg/kg/injection, schedule: Q04DX002 (ip), vehicle: saline with Tween-80) is 106 % of control; the T/C (dose: 2.5 mg/kg/injection, schedule: Q04DX002 (ip), vehicle: saline with Tween-80) was 97 % of control; the T/C (dose: 5.0 mg/kg/injection, schedule: Q04DX002 (ip), vehicle: saline with Tween-80) was 99 % of control.

For `CN1CCN(c2ccc([N+](=O)[O-])c3no[n+]([O-])c23)CC1`, the T/C runs as follows: (dose: 2.5 mg/kg/injection, schedule: Q01DX009 (ip), vehicle: saline) 116 % of control; (dose: 20.0 mg/kg/injection, schedule: Q01DX009 (ip), vehicle: saline) 152 % of control.

Take `COc1cc2c(cc1OC)-c1cc(C)c3cc(OC)c(OC)cc3[n+]1CC2`: the T/C runs as follows: (dose: 50.0 mg/kg/injection, schedule: Q01DX009 (ip), vehicle: water) 111 % of control; (dose: 100.0 mg/kg/injection, schedule: Q01DX009 (ip), vehicle: water) 110 % of control; (dose: 200.0 mg/kg/injection, schedule: Q01DX009 (ip), vehicle: water) 117 % of control.
